# Measurements published in patent US20060128654A1, “Pharmaceutical formulation of cytidine analogs and derivatives” (priority 2004, published 2006).
# Assay: Chemical stability of decitabine in cyclodextrin solutions (HPLC potency, % of total peak areas at 220 nm)
# Assay type: physicochemical
# Method: The chemical stability of decitabine in the cyclodextrin solutions and in the phophate buffer as prepared above was determined. The initial decitabine concentration for all the solutions was 17-18 mg/mL at the beginning of the experiment at 2-8° C.; 9-10 mg/mL at the beginning of the experiment at 25° C. Decitabine potency was assayed by a HPLC method, and expressed as a percentage of total peak areas at 220 nm.
smiles,measurement,setting,value
"Nc1ncn([C@H]2C[C@H](O)[C@@H](CO)O2)c(=O)n1 [decitabine, 5-aza-2′-deoxycytidine]",Stability in aqueous solution with cyclodextrins as excipients,"2-8° C., initial 17-18 mg/mL, FIG. 1",dramatically improve the stability
same,Stabilization effect at various HPBCD concentrations,"25° C., FIG. 3",concentration dependent
same,Stability in aqueous solution with cyclodextrins as excipients,"25° C., initial 9-10 mg/mL, FIG. 2",dramatically improve the stability
